Source: ChEMBL document CHEMBL1201862, “PubChem BioAssay data set” (2004)
Calls of active or inactive are those of the source. Unless noted, the rule behind the calls is not given here.

Key:
[1] = HepG2 cell cytotoxicity, dose response, cytotoxicity control, ATP luminescence, dry powder, Set4 (AID 743143); assay type: functional, cell-based
[2] = biological target: Mu-type opioid receptor (Homo sapiens, UniProt P35372); assay: Late-stage results from the probe development effort to identify antagonists of OPRK1: luminescence-based cell-based dose response OPRM1 counterscreen.; assay type: functional
Mu-type opioid receptor, sequence (P35372 whole entry): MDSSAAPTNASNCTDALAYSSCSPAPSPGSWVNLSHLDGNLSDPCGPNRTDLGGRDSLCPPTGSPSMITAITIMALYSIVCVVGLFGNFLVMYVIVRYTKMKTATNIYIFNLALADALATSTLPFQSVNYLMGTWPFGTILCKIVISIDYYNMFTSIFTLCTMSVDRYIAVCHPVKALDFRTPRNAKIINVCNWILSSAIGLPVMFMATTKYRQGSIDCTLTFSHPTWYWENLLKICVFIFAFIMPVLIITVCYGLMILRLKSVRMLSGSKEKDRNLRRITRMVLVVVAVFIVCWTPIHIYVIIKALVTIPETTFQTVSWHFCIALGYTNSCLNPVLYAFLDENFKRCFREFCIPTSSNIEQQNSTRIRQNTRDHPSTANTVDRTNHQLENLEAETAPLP

[3] = biological target: Delta-type opioid receptor (Homo sapiens, UniProt P41143); assay: Late-stage results from the probe development effort to identify antagonists of OPRK1: fluorescence-based cell-based dose response OPRD1 counterscreen.; assay type: functional
Delta-type opioid receptor, sequence (P41143 whole entry): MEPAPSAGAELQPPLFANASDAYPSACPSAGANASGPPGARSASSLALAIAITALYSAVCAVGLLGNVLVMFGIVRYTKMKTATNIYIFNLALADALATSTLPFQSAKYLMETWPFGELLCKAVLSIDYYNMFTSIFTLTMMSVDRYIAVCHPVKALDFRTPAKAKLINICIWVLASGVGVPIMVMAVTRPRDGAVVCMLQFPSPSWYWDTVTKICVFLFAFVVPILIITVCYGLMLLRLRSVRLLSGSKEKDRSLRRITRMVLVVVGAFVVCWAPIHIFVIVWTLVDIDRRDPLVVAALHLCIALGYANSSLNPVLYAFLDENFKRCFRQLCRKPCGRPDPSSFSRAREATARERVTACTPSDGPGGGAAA

[4] = HepG2 hepatoma cell cytotoxicity, dose response, cytotoxicity control, CellTiter-Glo luminescence, dry powder, set 3 (AID 720594); assay type: functional, cell-based
[5] = HeLa cell cytotoxicity, dose response, cytotoxicity control, CellTiter-Glo luminescence, dry powder, set 2 (AID 720593); assay type: functional, cell-based
[6] = biological target: 1-phosphatidylinositol 4,5-bisphosphate phosphodiesterase beta-3 (Homo sapiens, UniProt Q01970); assay: Fluorescence-based biochemical high throughput dose response assay to identify inhibitors of phospholipase C isozymes (PLC-B3).
1-phosphatidylinositol 4,5-bisphosphate phosphodiesterase beta-3, sequence (Q01970 whole entry): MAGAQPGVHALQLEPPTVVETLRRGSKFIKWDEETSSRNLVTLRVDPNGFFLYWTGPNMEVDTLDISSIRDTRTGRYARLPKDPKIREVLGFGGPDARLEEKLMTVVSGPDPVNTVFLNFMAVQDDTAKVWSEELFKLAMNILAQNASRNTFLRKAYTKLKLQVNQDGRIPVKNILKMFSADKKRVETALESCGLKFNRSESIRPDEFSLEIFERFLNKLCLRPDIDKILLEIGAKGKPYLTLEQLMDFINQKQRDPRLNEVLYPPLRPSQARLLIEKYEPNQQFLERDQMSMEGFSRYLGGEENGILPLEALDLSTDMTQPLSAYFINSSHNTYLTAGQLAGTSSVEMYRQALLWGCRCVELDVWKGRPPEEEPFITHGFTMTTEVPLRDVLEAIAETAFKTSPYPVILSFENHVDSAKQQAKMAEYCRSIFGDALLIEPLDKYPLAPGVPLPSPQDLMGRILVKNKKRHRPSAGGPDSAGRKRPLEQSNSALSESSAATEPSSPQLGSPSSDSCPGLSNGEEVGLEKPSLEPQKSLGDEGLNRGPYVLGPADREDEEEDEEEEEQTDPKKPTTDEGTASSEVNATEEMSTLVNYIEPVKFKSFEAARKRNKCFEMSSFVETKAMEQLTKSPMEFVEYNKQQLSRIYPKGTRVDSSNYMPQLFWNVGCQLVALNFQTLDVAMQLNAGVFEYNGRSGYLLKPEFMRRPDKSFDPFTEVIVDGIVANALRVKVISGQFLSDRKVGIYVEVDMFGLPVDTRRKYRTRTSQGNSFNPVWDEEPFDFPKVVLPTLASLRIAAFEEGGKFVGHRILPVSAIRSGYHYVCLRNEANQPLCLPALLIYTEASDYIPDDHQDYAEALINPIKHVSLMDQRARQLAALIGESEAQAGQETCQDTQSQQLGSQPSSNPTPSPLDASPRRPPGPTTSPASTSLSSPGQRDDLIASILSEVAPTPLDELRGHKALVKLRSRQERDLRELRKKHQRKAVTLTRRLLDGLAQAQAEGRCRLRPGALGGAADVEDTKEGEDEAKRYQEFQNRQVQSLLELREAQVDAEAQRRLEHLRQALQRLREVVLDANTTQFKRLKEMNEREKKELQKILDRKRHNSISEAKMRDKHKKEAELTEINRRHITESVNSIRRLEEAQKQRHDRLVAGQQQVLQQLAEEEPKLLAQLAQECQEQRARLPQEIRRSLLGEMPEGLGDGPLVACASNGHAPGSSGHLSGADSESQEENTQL

[7] = ADAM10 inhibitors, peptide cleavage, dose response, biochemical, QFRET (AID 743254);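 also: ADAM10 enzyme with the DM2 quenched FRET peptide as substrate; EDANS fluorescence gain as the protease cuts the substrate; inhibitor potency against ADAM10 proteolytic activity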
[8] = biological target: 1-phosphatidylinositol 4,5-bisphosphate phosphodiesterase gamma-1 (Homo sapiens, UniProt P19174); assay: Counterscreen for inhibitors of phospholipase C isozymes (PLC-B3): Fluorescence-based biochemical high throughput dose response assay to identify inhibitors of phospholipase C isozymes (PLC-gamma1).
1-phosphatidylinositol 4,5-bisphosphate phosphodiesterase gamma-1, sequence (P19174 whole entry, the tested form may be a part): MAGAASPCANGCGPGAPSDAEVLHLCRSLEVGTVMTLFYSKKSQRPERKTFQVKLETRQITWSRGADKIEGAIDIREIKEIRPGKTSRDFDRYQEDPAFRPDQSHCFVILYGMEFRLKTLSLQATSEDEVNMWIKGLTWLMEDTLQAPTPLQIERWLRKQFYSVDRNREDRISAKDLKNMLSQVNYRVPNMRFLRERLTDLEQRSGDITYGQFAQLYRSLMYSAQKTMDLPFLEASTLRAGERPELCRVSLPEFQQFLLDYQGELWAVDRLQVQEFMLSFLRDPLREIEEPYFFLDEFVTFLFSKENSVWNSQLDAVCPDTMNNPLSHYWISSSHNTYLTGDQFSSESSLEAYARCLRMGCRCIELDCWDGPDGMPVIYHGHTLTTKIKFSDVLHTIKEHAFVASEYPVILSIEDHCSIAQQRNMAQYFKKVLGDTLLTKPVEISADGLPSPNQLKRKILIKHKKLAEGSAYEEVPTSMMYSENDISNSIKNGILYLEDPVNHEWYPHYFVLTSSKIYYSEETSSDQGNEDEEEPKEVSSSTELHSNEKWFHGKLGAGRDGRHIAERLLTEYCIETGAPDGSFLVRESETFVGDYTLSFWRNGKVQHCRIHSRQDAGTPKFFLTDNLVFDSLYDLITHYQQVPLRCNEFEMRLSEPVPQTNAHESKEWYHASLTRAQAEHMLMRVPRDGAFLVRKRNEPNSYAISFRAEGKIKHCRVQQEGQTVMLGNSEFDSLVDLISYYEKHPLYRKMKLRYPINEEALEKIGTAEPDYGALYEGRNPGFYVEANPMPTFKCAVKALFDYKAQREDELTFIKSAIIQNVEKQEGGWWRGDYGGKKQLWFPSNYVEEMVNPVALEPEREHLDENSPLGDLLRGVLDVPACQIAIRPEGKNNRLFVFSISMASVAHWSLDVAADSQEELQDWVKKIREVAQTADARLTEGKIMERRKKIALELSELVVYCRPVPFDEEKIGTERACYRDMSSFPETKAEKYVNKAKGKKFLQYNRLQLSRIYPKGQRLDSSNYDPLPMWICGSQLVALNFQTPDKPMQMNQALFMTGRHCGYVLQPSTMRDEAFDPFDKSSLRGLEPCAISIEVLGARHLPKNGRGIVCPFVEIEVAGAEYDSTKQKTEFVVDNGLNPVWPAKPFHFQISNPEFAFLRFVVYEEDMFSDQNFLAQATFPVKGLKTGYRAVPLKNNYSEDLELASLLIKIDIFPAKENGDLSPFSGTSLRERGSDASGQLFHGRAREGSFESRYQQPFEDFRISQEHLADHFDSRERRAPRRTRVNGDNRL

[9] = biological target: Disintegrin and metalloproteinase domain-containing protein 17 (Homo sapiens, UniProt P78536); assay: ADAM17 protease inhibitors, dose response, counter-screen for ADAM10 exosite inhibitor project, biochemical, quenched FRET substrate (AID 743253)
[10] = test system: INS1; assay: beta cell apoptosis inhibitors, cytokine rescue, dose response, luminescence, retest (AID 449756); assay type: functional, cell-based; details: Rattus norvegicus;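 also: cell death triggered by IL-1 beta plus TNF-alpha plus IFN-gamma mixture; protective hits raise ATP signal compared with cytokine alone wells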
[11] = biological target: Lysine-specific demethylase 4C (Homo sapiens, UniProt Q9H3R0); assay: GASC-1 (JMJD2C) histone demethylase inhibitors, dose response, biochemical, DELFIA europium, cherry-picked samples (AID 488835); assay type: functional
Lysine-specific demethylase 4C, sequence (Q9H3R0 whole entry): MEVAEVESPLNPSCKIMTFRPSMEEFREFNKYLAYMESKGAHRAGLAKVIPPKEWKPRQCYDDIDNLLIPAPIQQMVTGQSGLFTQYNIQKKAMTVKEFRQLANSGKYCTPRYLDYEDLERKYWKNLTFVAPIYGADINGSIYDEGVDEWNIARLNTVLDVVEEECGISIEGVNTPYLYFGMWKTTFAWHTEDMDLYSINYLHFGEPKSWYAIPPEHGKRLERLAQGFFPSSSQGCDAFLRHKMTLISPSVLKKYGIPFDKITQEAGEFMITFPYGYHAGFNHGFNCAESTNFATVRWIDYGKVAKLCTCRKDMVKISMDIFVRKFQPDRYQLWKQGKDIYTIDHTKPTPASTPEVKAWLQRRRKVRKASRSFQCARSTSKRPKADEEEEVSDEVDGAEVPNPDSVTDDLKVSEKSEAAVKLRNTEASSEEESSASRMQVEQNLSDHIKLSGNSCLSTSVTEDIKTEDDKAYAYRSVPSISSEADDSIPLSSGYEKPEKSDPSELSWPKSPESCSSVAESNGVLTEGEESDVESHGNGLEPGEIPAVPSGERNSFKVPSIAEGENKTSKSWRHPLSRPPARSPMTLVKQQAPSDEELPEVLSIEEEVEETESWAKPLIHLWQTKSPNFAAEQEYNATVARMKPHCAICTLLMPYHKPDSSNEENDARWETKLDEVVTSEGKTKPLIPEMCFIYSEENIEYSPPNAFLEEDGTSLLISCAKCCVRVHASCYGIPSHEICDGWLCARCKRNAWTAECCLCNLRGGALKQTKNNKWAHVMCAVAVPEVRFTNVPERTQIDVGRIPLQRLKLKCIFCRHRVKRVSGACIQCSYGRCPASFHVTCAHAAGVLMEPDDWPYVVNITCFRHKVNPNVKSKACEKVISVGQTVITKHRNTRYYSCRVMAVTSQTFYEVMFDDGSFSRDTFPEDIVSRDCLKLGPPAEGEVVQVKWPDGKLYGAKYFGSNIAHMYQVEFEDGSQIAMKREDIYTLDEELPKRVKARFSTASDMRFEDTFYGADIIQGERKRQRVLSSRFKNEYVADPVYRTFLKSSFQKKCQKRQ

[12] = biological target: T1, Replicative DNA helicase DnaB (Mycobacterium tuberculosis, UniProt P9WMR3); assay: DnaB intein splicing inhibitors, dose response, biochemical, cell-free fluorescence (AID 449749); assay type: functional
T1 sequence (P9WMR3 whole entry): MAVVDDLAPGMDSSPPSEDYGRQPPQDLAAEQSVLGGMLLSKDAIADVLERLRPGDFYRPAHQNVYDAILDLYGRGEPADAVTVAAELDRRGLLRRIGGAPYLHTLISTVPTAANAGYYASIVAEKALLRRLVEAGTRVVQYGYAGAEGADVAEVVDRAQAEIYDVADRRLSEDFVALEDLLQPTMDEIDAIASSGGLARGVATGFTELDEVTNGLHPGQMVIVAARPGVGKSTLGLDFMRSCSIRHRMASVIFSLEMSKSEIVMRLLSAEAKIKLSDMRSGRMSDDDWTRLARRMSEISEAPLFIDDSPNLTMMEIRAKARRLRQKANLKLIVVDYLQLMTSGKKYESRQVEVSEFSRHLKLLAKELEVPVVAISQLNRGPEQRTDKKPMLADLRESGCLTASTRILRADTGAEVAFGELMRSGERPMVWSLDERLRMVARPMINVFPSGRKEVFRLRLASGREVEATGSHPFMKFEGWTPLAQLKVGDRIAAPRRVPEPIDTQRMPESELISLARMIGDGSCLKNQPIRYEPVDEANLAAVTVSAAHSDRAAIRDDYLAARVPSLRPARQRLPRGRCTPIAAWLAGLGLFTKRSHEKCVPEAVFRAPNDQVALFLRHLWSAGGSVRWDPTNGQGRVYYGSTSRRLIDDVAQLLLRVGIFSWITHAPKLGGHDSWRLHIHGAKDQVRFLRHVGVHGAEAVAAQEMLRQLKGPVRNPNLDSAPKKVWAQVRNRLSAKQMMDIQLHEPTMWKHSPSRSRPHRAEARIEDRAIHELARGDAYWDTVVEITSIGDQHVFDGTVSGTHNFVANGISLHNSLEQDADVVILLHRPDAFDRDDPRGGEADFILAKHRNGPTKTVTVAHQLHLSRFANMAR

[13] = A375 melanoma cell cytotoxicity, dose response, counter-screen for MITF inhibitor project, CellTiter-Glo luminescence, dry powder, set 2 (AID 624489); assay type: functional, cell-based; details: A-375;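 also: actives are compounds lowering A375 viability meaning general cytotoxicity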
[14] = inhibitors of firefly luciferase expression or activity, dose response, H4 neuroglioma cells, luminescence (AID 1990); assay type: functional, cell-based
[15] = cytotoxicity in HEK-293T cells, dose response, cytotoxicity control for TCR NF-kB inhibitor project, luminescence, T-cell screen hits (AID 489026); assay type: functional, cell-based;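 also: cells exposed to compound about 14 hours before the viability readout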
[16] = inhibitors of SNCA 5'UTR-driven reporter translation, confirmation, H4 neuroglioma cells, luminescence (AID 1988); assay type: functional, cell-based
[17] = growth suppression of beta-catenin-knockout colon cells, dose response, cell-based, HCT116, human colon tumor (AID 1045); assay type: functional;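 also: HCT116 colon tumor cells with beta catenin knocked out; cells exposed to compound for 60 hours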
[18] = A375 melanoma cell viability loss, dose response, counter-screen for MITF inhibitor project, CellTiter-Glo luminescence, dry powder, set 4 (AID 624364); assay type: functional, cell-based; details: A-375;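 also: A375 melanoma cells are MITF independent so this is a counter screen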
[19] = Luminescence Cell-Based Dose Response HTS to Identify Inhibitors of 5'UTR Stem-Loop Driven Prion Protein mRNA Translation in H4 Neuroglioblastoma Cells. [Related pubchem assays: 1827 (Project Summary), 1813 (Primary HTS)]; assay type: functional
[20] = growth suppression of PTEN-null colon cells, dose response, cell-based, HCT116 PTEN knockout (AID 1047); assay type: functional;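 also: HCT116 colon tumor cells with PTEN knocked out; cells exposed to compound for 60 hours before readout; potency for loss of cell viability measured by luminescence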
[21] = biological target: T2, Microphthalmia-associated transcription factor (Homo sapiens, UniProt O75030); assay: TRPM1 promoter luciferase signal decrease, dose response, MITF inhibitor project, cell-based, SK-MEL-5, cherry-picked, set 3 (AID 493073); assay type: functional
T2 sequence (O75030 whole entry): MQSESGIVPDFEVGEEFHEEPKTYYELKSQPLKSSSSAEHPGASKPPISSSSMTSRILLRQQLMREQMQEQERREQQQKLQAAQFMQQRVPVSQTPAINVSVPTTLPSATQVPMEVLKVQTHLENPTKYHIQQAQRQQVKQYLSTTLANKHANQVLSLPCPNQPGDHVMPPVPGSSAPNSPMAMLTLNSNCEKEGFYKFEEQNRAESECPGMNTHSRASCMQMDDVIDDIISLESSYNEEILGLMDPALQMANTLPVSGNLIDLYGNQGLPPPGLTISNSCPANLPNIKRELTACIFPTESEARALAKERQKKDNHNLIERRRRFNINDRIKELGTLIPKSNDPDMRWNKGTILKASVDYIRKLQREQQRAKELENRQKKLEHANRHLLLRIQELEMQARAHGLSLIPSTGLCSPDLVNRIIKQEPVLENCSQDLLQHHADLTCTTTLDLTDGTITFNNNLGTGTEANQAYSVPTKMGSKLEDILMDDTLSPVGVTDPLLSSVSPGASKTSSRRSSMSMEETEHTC

[22] = biological target: T3, Protein RecA (Mycobacterium tuberculosis, UniProt P9WHJ3); assay: Fluorescence Cell-Free Homogeneous Dose Retest to Identify Inhibitors of RecA-Intein Splicing Activity. [Related pubchem assays (depositor defined):AID2097, AID2223, AID489010, AID492950]; assay type: functional
T3 sequence (P9WHJ3 whole entry): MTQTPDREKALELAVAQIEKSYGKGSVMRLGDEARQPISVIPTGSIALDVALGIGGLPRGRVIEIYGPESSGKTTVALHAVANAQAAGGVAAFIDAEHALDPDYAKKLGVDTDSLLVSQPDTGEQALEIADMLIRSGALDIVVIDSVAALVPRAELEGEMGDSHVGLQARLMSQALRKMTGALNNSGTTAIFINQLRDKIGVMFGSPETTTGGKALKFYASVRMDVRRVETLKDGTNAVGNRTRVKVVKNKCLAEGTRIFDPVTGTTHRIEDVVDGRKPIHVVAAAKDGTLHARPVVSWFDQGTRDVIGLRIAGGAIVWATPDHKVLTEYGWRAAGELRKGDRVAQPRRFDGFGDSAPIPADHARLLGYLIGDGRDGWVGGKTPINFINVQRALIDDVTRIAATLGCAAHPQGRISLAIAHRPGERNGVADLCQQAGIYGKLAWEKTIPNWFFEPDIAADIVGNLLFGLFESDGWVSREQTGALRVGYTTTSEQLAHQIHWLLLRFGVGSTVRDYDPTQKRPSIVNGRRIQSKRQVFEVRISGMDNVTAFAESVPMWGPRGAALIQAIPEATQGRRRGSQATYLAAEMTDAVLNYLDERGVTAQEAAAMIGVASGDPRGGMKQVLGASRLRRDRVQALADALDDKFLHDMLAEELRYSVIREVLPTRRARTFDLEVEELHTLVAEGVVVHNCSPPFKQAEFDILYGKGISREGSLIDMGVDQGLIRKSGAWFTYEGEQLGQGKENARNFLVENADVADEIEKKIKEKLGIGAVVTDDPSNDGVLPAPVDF

O=C(CCn1cnc2ccccc2c1=O)NC1CCCc2ccccc21 (configuration not stated)
AC50 [1]: > 52 µM (inactive)

COC(=O)c1cc(I)cnc1N1CCC(NC2CCCCC2)CC1
IC50 [2]: 0.479 µM (active)
IC50 [3]: 2.5 µM (active)

COc1ccc(-c2nnc(NC(=O)c3ccc(S(=O)(=O)N4CCC(C)CC4)cc3)o2)cc1
AC50 [4]: > 52 µM (inactive)
AC50 [5]: > 52 µM (inactive)

CN1C(=O)c2cc(NC(=O)Nc3ccccc3F)ccc2OC[C@H]2O[C@@H](CC(=O)NCc3ccc(-c4ccccc4)cc3)CC[C@@H]21
IC50 [6]: > 122 µM (inactive)
IC50 [7]: > 69.5 µM (inactive)
IC50 [8]: > 122 µM (inactive)
IC50 [9]: > 69.5 µM (inactive)

CC(=O)N(C)C1=C(N2CCOCC2)C(=O)c2ccccc2C1=O
AC50 [10]: 1.67 µM (active)
AC50 [11]: 31.2 µM (active)
AC50 [12]: 51.3 µM (active)
AC50 [13]: 13.9 µM (active)
EC50 [14]: 10.8 µM (active)
IC50 [15]: 4.03 µM (active)
EC50 [16]: 7.74 µM (active)
EC50 [17]: 1.81 µM (active)
AC50 [18]: 32.1 µM (active)
EC50 [19]: 11.7 µM (active)
EC50 [20]: 1.91 µM (active)
AC50 [21]: 3.5 µM (active)
EC50 [22]: 38.4 µM (active)
